In article PMC2173257 (The Journal of Cell Biology, 2002):

Columns and labels:
Kes1p^LH201/202FN = Kes1p^LH201/202FN (Saccharomyces cerevisiae, UniProt P35844, L201F/H202N); experiment: competitive displacement of photo-probe from purified mutant protein; format: binding
Kes1p = Kes1p (Saccharomyces cerevisiae, UniProt P35844); experiment: competitive displacement of [3H]BZDC-PI; format: binding

- IC50 (Kes1p^LH201/202FN): 6.1 µM
- IC50 (Kes1p): 1.9 µM
Substance: PI(4,5)P2
